Experimental data: patent publication US20110112132A1, “MEANS FOR THE TREATMENT OF ACUTE AND CHRONIC DISORDERS OF CEREBRAL CIRCULATION, INCLUDING INSULT, BASED ON HYDROGENATED PYRIDO (4,3-B) INDOLES (VARIANTS), PHARMACOLOGICAL MEANS BASED THEREON AND METHOD FOR THE USE THEREOF” (Medivation Neurology, Inc., priority 2006, published 2011)
Counter-ions that a name gives are not always drawn. Marks after values point to notes of the source that are not given here.

What was measured:
[1] = test system: rats with hemorrhagic insult; test: Intracerebral post-traumatic hematoma (hemorrhagic insult) model: neurological deficit, McGraw Stroke index; assay type: in vivo, rat
Protocol: (§1) The study was performed in accordance with the “Methodological instructions for the experimental study of preparations for the treatment of cerebral circulation and migraine,” in “Handbook on the experimental (preclinical) study of new pharmacological substances,” Meditsina, Moscow, 2005, pp. 332-338, as modified by A. N. Makarenko et al. (“Method for modeling local hemorrhage in various brain structures in experimental animals,” Zh. vyssh. nervn. deyat. (2002) 52(6):765-768).
The experiments were performed on cross-bred male white rats weighing 200-250 g, kept in a vivarium with free access to food (standard pelleted feed) and water, and with natural alternation of day and night. Using a special device (mandrin-knife) and stereotaxis, brain tissue of rats anesthetized with nembutal (40 mg/kg, i/m) was destroyed in the region of the capsule interna, with subsequent (after 2-3 minutes) introduction into the damage site of blood taken from under the rat's tongue (0.02-0.03 ml). Scalping and trepanning of the skull were performed on sham-operated animals.
(§2) The animals were divided into 4 groups: sham-operated, a group of animals with hemorrhagic insult, animals with hemorrhagic insult which received dimebon intraperitoneally at a dose of 0.1 mg/kg, and animals with hemorrhagic insult which received nimodipine intraperitoneally at a dose of 0.1 mg/kg. The effects of the substances were recorded 24 hours, and 3, 7 and 14 days after operation.
Dimebon and nimodipine were administered intraperitoneally to animals with insult in an identical dose of 0.1 mg/kg 3-3.5 hours after operation, and then daily for 14 days after operation. An equal volume of physiological saline was administered intraperitoneally to the control groups of animals at identical intervals. Each group consisted of 9-18 animals at the start of the experiment.
The neurological deficit in the animals was determined using the McGraw Stroke index as modified by I. V. Gannushkina (Functional angioarchitectonics of the brain (1977) (Moscow, Meditsina) p. 224). The severity of the condition was determined from the sum of the corresponding scores. The number of rats with mild symptoms up to 2.5 points on the Stroke-index scale (sluggish movements, limb weakness, unilateral hemiptosis, tremor, circular movements) and with severe manifestations of neurological impairment (from 3 to 10 points)—limb paresis, paralysis of lower limbs, lateral position, was noted.

[2] = test system: rats with cerebral ischemia induced by ligation of the carotid arteries; test: Rat brain ischemia by ligation of the carotid arteries: neurological deficit, McGraw Stroke index; assay type: in vivo; settings: 0.1 mg/kg i.p.
Protocol: Rat brain ischemia, produced by irreversible occlusion of the carotid arteries, was performed in accordance with “Methodological instructions for the experimental study of preparations for the treatment of cerebral circulation and migraine,” in “Handbook on the experimental (preclinical) study of new pharmacological substances,” Meditsina, Moscow, 2005, pp. 332-338.
Experiments were performed on cross-bred male white rats weighing 200-250 g, anesthetized with chloral hydrate (350 mg/kg, i/p). Irreversible single-step bilateral ligation of the common carotid arteries was performed on the animals. In the group of sham-operated animals, the ligatures were applied to the vessels but were not tightened.
After completing the operation, the animals were divided randomly into groups: group one rats were given dimebon intraperitoneally at 0.1 mg/kg administered 30 minutes after the ligature was tied, then daily for 14 days after operation; group two rats were given nimodipine intraperitoneally at 0.1 mg/kg administered 30 minutes after the ligature was tied, then daily for 14 days after operation. Group one and group two animals were experiencing an acute cerebral circulation disturbance at the time of drug administration. Control group and sham-operated animals were given equivalent volumes of physiological saline (0.9% sodium chloride) at the same times.
Neurological deficit in animals with cerebral ischemia induced by ligation of the carotid arteries was determined using the McGraw Stroke index as modified by I. V. Gannushkina (Functional angioarchitectonics of the brain (1977) (Moscow, Meditsina) p. 224). The severity of the condition was determined from the sum of the corresponding scores. The number of rats with mild symptoms up to 2.5 points on the Stroke-index scale (sluggish movements, limb weakness, hemiptosis, tremor, circular movements) and with severe manifestations of neurological impairment (from 3 to 10 points)—limb paresis, paralysis of lower limbs, lateral position, was noted.

AMPA receptors = settings: rat brain neurons; cited from earlier work
NMDA receptors = settings: rat brain neurons; cited from earlier work
[3] = test system: rats with hemorrhagic insult; test: Intracerebral post-traumatic hematoma (hemorrhagic insult) model: death of animals; assay type: in vivo, rat; settings: 0.1 mg/kg i.p.; entire period of observation
Protocol: as §1
The experiments were performed on cross-bred male white rats weighing 200-250 g, kept in a vivarium with free access to food (standard pelleted feed) and water, and with natural alternation of day and night. […]
as §2, with “operation. […]” for “operation.”
Rat deaths were recorded over the entire 14 day period of observation. […]

[4] = 24 hours after operation (hemorrhagic insult), 0.1 mg/kg i.p.
[5] = 14 days after operation (hemorrhagic insult), 0.1 mg/kg i.p. daily

Row | SMILES | Number of animals with circular movements [1, 4] | Number of animals with limb weakness [1, 4] | Number of animals with paresis of 1-4 limbs [1, 4] | Number of animals with sluggish, slow movements [1, 4] | Number of animals with circular movements [1, 5] | Number of animals with limb weakness [1, 5] | Number of animals with paresis of 1-4 limbs [1, 5] | Number of animals with sluggish, slow movements [1, 5] | Number of animals with bilateral hemiptosis ([2]; 1 day after ischemic insult) | Number of animals with limb weakness ([2]; 1 day after ischemic insult) | Number of animals with sluggish, slow movements ([2]; 1 day after ischemic insult) | Number of animals with unilateral hemiptosis ([2]; 1 day after ischemic insult) | Number of animals with bilateral hemiptosis ([2]; 3 days after ischemic insult) | Number of animals with limb weakness ([2]; 3 days after ischemic insult) | Number of animals with sluggish, slow movements ([2]; 3 days after ischemic insult) | Number of animals with unilateral hemiptosis ([2]; 3 days after ischemic insult) | Number of animals with bilateral hemiptosis ([2]; 7 days after ischemic insult) | Number of animals with limb weakness ([2]; 7 days after ischemic insult) | Number of animals with sluggish, slow movements ([2]; 7 days after ischemic insult) | Number of animals with unilateral hemiptosis ([2]; 7 days after ischemic insult) | further results
1 | Cc1ccc2c(c1)c1c(n2CCc2ccc(C)nc2)CCN(C)C1 [dimebon, 2,8-dimethyl-5-[2-(6-methyl-pyridyl-3-)ethyl]2,3,4,5-tetrahydro-1H-pyrido[4,3-b]indole dihydrochloride] | 33% | 66% | 33% | 88% | 0% | 7% | 0% | 7% | 33.3* % | 16.7% | 33.3* % | 16.7% | 25.0* % | 16.7% | 33.3% | 0% | 9.1* % | 9.1% | 9.1* % | 0% | Effect on number of animals with pareses after hemorrhagic insult, in words ([1]; 0.1 mg/kg i.p., first day of observation): almost halving the number of animals with pareses; Effect on neurological deficit in rats with ischemia, in words ([2]; first and particularly seventh day after operation): prevented the development of neurological deficit; Number of animals with bilateral hemiptosis ([2]; 14 days after ischemic insult): 0%; Number of animals with limb weakness ([2]; 14 days after ischemic insult): 0%; Number of animals with sluggish, slow movements ([2]; 14 days after ischemic insult): 0%; Number of animals with unilateral hemiptosis ([2]; 14 days after ischemic insult): 0%; Number of animals with unilateral ptosis ([2]; 14 days after ischemic insult): 0%; Effect on transmembrane currents induced by the activation of AMPA receptors, in words (AMPA receptors): potentiates the transmembrane currents; Effect on NMDA receptors, in words (NMDA receptors): blocks the NMDA receptors; Effect on death of animals after hemorrhagic insult, in words [3]: almost completely prevented the death of animals
2 | COCCOC(=O)C1=C(C)NC(C)=C(C(=O)OC(C)C)C1c1cccc([N+](=O)[O-])c1 (stereo not shown) [nimodipine, reference compound] | 25% | 50% | 25* % | 50% | 0% | 0% | 0* % | 16.6% | 50% | 20% | 50% | 20% | 20* % | 0% | 30% | 20% | 20* % | 10% | 0% | 0% | Number of animals with bilateral hemiptosis ([2]; 14 days after ischemic insult): 0%; Number of animals with limb weakness ([2]; 14 days after ischemic insult): 0%; Number of animals with sluggish, slow movements ([2]; 14 days after ischemic insult): 0%; Number of animals with unilateral hemiptosis ([2]; 14 days after ischemic insult): 0%; Number of animals with unilateral ptosis ([2]; 14 days after ischemic insult): 0%
